Results taken from patent US20230295164A1, “COMPOUNDS HAVING ANTIBACTERIAL ACTIVITY” (The Trustees of Princeton University, priority 2020, published 2023).

Tests used:
Assay in all cases: MIC testing, broth microdilution in CAMHB
Format in all cases: cell-based
Conditions in all cases: 37° C., 18-20 hr, lowest concentration that completely inhibits visible growth
[1] = system: Staphylococcus aureus, NRS384
Protocol: (§1) Compounds 1-71 were subsequently tested to determine MICs of the compounds relative to the following five species/strains of bacteria: Staphylococcus aureus, NRS384; Enterococcus faecalis, ATCC 51575; Salmonella typhimurium, CMCC 50115; Escherichia coli, ATCC BAA-198; and Acinetobacter baumannii, ATCC 17978. MIC testing of compounds was conducted according to the following protocol.
(§2) For each strain to be tested, made fresh streaks onto CAMHA from −80° C. glycerol stocks.
(§3) • CAMHB: Dissolved 22 g of the powder per 1 L of purified water. Mixed well. Autoclaved at 121° C. for 10 minutes. Stored at room temperature (RT) for no more than 1 week. • Saline: Dissolved 9 g of the powder per 1 L of purified water. Mixed well. Autoclaved at 121° C. for 30 minutes. Stored at room temperature (RT) for no more than 1 week.
(§4) Prepared the stock solutions of the tested compounds.
(§5) For compounds: • a) Dispensed 20 ul compound to the wells in column 1, and 20 ul DMSO to the wells in column 2 to 12; • b) Diluted the compounds by transferring 10 ul compounds from column 1 to 20 ul DMSO in column 2; mix with pipette. • c) Repeated until column 11 to get 3×serial dilutions. Column 12 was the DMSO control.
(§6) A multichannel pipette was used to deliver 1 μl of the diluted compound into each well of the corresponding daughter plate.
(§7) Scraped 4-8 single colonies from an agar plate into 5 ml saline in a 14 ml Falcon conical tube. Vortexed the tube to suspend the bacteria. Adjusted the turbidity to ˜0.2 (corresponding to 0.5 McFarland) with an Ultrospec 10 Cell density meter.
(§8) The strain suspension was diluted 200-fold in CAMHB medium and dispense into a sterile reservoir. A multichannel pipette was then used to deliver 99 μl of the diluted inocula into each well of the corresponding daughter plate.
(§9) Incubate the daughter plates at 37° C., 85% humidity for 18-20 hr.
(§10) A magnifying mirror device was used for ease of scoring the presence or absence of growth in the wells. 96-well micro-plates were photographed.

[2] = system: Enterococcus faecalis, ATCC 51575
Protocol: as §1, §2, §3, §4, §5, §6, §7, §8, §9, §10

[3] = system: Acinetobacter baumannii, ATCC 17978
Protocol: as §1, §2, §3, §4, §5, §6, §7, §8, §9, §10

[4] = system: Escherichia coli, ATCC BAA-198
Protocol: as §1, §2, §3, §4, §5, §6, §7, §8, §9, §10

[5] = system: Salmonella typhimurium, CMCC 50115
Protocol: as §1, §2, §3, §4, §5, §6, §7, §8, §9, §10

Compound MICs, Staphylococcus aureus, NRS384 [1] [µg/mL] | Compound MICs, Enterococcus faecalis, ATCC 51575 [2] [µg/mL] | Compound MICs, Acinetobacter baumannii, ATCC 17978 [3] [µg/mL] | Compound MICs, Escherichia coli, ATCC BAA-198 [4] [µg/mL] | Compound MICs, Salmonella typhimurium, CMCC 50115 [5] [µg/mL] | Compound
2.37 | 0.09 | 21.3 | 64 | 0.79 | COc1ccc(-c2cc3c(ccn3Cc3ccc(F)cc3)c3c(N)nc(N)nc23)cc1 [Compound 41]
0.03 | 0.01 | 7.11 | 7.11 | 0.79 | Cc1ccc(Cn2ccc3c4c(N)nc(N)nc4ccc32)c2ccccc12 [Compound 42]
2.37 | 0.09 | 64 | 64 | 2.37 | Nc1nc(N)c2c(n1)c(-c1cccnc1)cc1c2ccn1Cc1ccc(F)cc1 [Compound 43]
0.09 | 0.03 | 64 | 7.11 | 7.11 | Nc1nc(N)c2c(ccc3c2ccn3Cc2ccc(Br)c3ccccc23)n1 [Compound 44]
0.79 | ≤0.001 | 7.11 | >64 | 2.37 | Nc1nc(N)c2c(n1)c(Br)cc1c2ccn1Cc1ccc(F)cc1 [Compound 46]
0.09 | 0.003 | >64 | >64 | 2.37 | C#Cc1ccc(Cn2ccc3c4c(N)nc(N)nc4c(Br)cc32)cc1 [Compound 47]
2.37 | 0.26 | >64 | >64 | 2.37 | Nc1nc(N)c2c(n1)c(C1CC1)cc1c2ccn1Cc1ccc(F)cc1 [Compound 49]
0.09 | 0.003 | 7.11 | 7.11 | 0.03 | Nc1nc(N)c2c(ccc3c2ccn3Cc2ccc(C(F)(F)F)nc2)n1 [Compound 50]
0.26 | 0.003 | >64 | 21.3 | 0.26 | Nc1nc(N)c2c(ccc3c2ccn3Cc2ccc(B(O)O)cc2)n1 [Compound 51]
7.11 | 2.37 | >64 | >64 | 21.3 | Nc1nc(N)c2c(n1)c(-c1ccc(F)cc1)cc1c2ccn1Cc1ccc(F)cc1 [Compound 52]
0.26 | 0.26 | 64 | 21.3 | 0.26 | N#Cc1cncc(Cn2ccc3c4c(N)nc(N)nc4ccc32)c1 [Compound 53]
2.37 | 0.003 | 64 | >64 | 21.3 | C=C(Cn1ccc2c3c(N)nc(N)nc3c(Br)cc21)C(=O)OC [Compound 54]
0.26 | 0.03 | 2.37 | 7.11 | 0.26 | Cc1cc2c(ccn2Cc2ccc(F)cc2)c2c(N)nc(N)nc12 [Compound 55]
0.03 | 0.01 | 2.37 | 7.11 | 0.03 | Nc1nc(N)c2c(ccc3c2ccn3Cc2ccnc(F)c2)n1 [Compound 56]
0.09 | 0.03 | 7.11 | 7.11 | 0.09 | N#Cc1ccc(Cn2ccc3c4c(N)nc(N)nc4ccc32)s1 [Compound 57]
0.09 | 0.03 | 2.37 | 7.11 | 0.26 | Nc1nc(N)c2c(ccc3c2ccn3Cc2ccc(-c3ccccc3)cn2)n1 [Compound 58]
0.26 | 0.03 | 7.11 | 21.3 | 0.26 | CC(C)c1ccc(Cn2ccc3c4c(N)nc(N)nc4ccc32)nc1 [Compound 59]
0.79 | 0.09 | 21.3 | 7.11 | 0.79 | Nc1nc(N)c2c(ccc3c2ccn3Cc2csc(C(F)(F)F)n2)n1 [Compound 60]
0.09 | 0.03 | 7.11 | 7.11 | 0.26 | Nc1nc(N)c2c(ccc3c2ccn3Cc2ccc(-c3ccccn3)cc2)n1 [Compound 61]
0.79 | 0.003 | 21.3 | 21.3 | 0.26 | C=C(Cn1ccc2c3c(N)nc(N)nc3ccc21)C(=O)OC [Compound 62]
